Target: T1, KDM4A-F185A (Homo sapiens, UniProt O75164, F185A)
T1 construct: human KDM4A-jmjC domain (catalytic domain of KDM4A); 6xHis (N); host or cells: E. coli BL21 (DE3)
T1 sequence (O75164 142-308 F185A limits assumed): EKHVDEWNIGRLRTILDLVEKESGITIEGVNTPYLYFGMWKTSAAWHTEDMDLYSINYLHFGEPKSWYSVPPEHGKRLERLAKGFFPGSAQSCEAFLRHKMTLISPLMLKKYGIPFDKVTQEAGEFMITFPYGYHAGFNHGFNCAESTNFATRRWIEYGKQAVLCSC
Assay: MALDI-MS end-point demethylase assay on H3K9me3 peptide
Type: biochemical
Conditions: H3K9me3 peptide, 200 µM 2OG, fixed concentration of NOG analogue
Source text: To develop an appropriate inhibitor, we selected N-oxalyl glycine (NOG, 2) scaffold because of its structural similarity with 2OG and the ability to inhibit 2OG-utilizing enzymes including KDMs (Figure 1C).[29]−[31] Substituting −CH2– at C3 of 2OG with −NH– in NOG prevents its oxidative decarboxylation by KDMs, making the inhibitor cofactor-competitive. […] We synthesized a panel of eight NOG analogues (3–10), derived from L-amino acids, carrying varied steric substituents at C4, with the reasoning that a bulky substituent at C4 would selectively fit into the expanded pocket of F185A over wild type KDM4A (Figures 2B and S1–S6, Schemes S1 and S2). The inhibitory effect of each compound was determined based on the extent of enzyme-catalyzed demethylation of a canonical peptide substrate corresponding to the N-terminus of histone 3 carrying trimethylated lysine at position 9 (H3K9me3). […] Such orthogonal inhibition of the engineered demethylase constitutes a powerful chemical probe to study the functions of a specific member of an enzyme family without issues of off-target activity. […]
assay (Biorad) kit with BSA concentrations as a standard. […]
8. Demethylase activity of the wild type and mutant KDM4 proteins on peptide substrate To monitor enzymatic activity, a demethylase activity assay was optimized and then observed through MALDI-TOF.7 Each histone demethylase assay sample included either wild type or mutant enzyme (10µM KDM4A, 7.5µM KDM4C, 10µM KDM4D, or 1µM KDM4E), 10 µM peptide, 200 µM 2OG, 50 mM Tris pH 8, […], 0-200µM NOG analogue, and 2 mM L-ascorbic acid with a total assay volume of 10 µL. Fe(II) supplement and L-ascorbic acid […]
Lastly, the 2OG and peptide were […]
positive mode and analyzed on Bruker FlexAnalysis software. The percent demethylated peptide […]
the multiple demethylation events on the peptide. […]
varying concentrations (0-10 µM). […] The fluorescence intensity was measured with excitation = 340 nm and emission = 490 nm on a TECAN Infinite M1000Pro. […]
The set up and analysis for IC50 of L-Leu NOG against KDM4A F185A enzyme was similar to that described in the coupled fluorescence assay section, but adjusted to function as an end point assay. […]
and varying concentration of compounds (NOGs 6, 9 and 10) and a substrate cocktail (200 µM 2OG and 60 µM H3K9me3 peptide). Different concentrations of NOG 6 were measured at one time point ranging for 1-5 hours. For 9 and 10, the same set-up remained, but enzymatic activity was measured via MALDI-TOF analysis, and relative activity and inhibition was calculated for different NOG concentrations as described above. […]
and analyzed on Bruker FlexAnalysis software. The percent demethylated peptide was calculated by first multiplying the K27me1 peak by 2 and the K27me0 peak by 3 to account for the multiple

CC(C)CC(NC(=O)C(=O)O)C(=O)O (stereo not shown) [compound 6, N-oxalyl leucine]
inhibition of F185A mutant demethylase activity (MALDI-MS): complete inhibition

Reference: PMC11783601, “Analogue-Sensitive Inhibition of Histone Demethylases Uncovers Member-Specific Function in Ribosomal Protein Synthesis” (Journal of the American Chemical Society, 2025)
